Laboratory results as given in the NIST ThermoML archive (doi:10.1021/je900550v).
± gives the expanded uncertainty stated by the source.

Conditions: 101.33 kPa, Liquid; for speed of sound: Pulse-echo method; for mass density: Vibrating tube method

CCC(=O)[O-].C[NH2+]CCO [2-hydroxy-N-methylethanaminium propionate]
Conditions | mass density [kg/m3] | speed of sound [m/s] | viscosity [mPa·s]
278.15 K | 1084.28 ± 2.2 | 1752.4 ± 2.2 | –
278.4 K | 1084.12 ± 2.2 | 1751.6 ± 2.2 | –
278.65 K | 1083.96 ± 2.2 | 1750.7 ± 2.2 | –
278.9 K | 1083.8 ± 2.2 | 1749.8 ± 2.2 | –
279.15 K | 1083.63 ± 2.2 | 1749 ± 2.2 | –
279.4 K | 1083.47 ± 2.2 | 1748.1 ± 2.2 | –
279.65 K | 1083.31 ± 2.2 | 1747.3 ± 2.2 | –
279.9 K | 1083.15 ± 2.2 | 1746.5 ± 2.2 | –
280.15 K | 1082.98 ± 2.2 | 1745.6 ± 2.2 | –
280.4 K | 1082.82 ± 2.2 | 1744.8 ± 2.2 | –
280.65 K | 1082.66 ± 2.2 | 1744 ± 2.2 | –
280.9 K | 1082.5 ± 2.2 | 1743.1 ± 2.2 | –
281.15 K | 1082.34 ± 2.2 | 1742.3 ± 2.2 | –
281.4 K | 1082.18 ± 2.2 | 1741.5 ± 2.2 | –
281.65 K | 1082.02 ± 2.2 | 1740.7 ± 2.2 | –
281.9 K | 1081.86 ± 2.2 | 1739.8 ± 2.2 | –
282.15 K | 1081.69 ± 2.2 | 1739 ± 2.2 | –
282.4 K | 1081.53 ± 2.2 | 1738.2 ± 2.2 | –
282.65 K | 1081.37 ± 2.2 | 1737.4 ± 2.2 | –
282.9 K | 1081.21 ± 2.2 | 1736.6 ± 2.2 | –
283.15 K | 1081.05 ± 2.2 | 1735.8 ± 2.2 | –
283.4 K | 1080.88 ± 2.2 | 1735 ± 2.2 | –
283.65 K | 1080.72 ± 2.2 | 1734.2 ± 2.2 | –
283.9 K | 1080.56 ± 2.2 | 1733.4 ± 2.2 | –
284.15 K | 1080.39 ± 2.2 | 1732.6 ± 2.2 | –
284.4 K | 1080.23 ± 2.2 | 1731.8 ± 2.2 | –
284.65 K | 1080.07 ± 2.2 | 1731 ± 2.2 | –
284.9 K | 1079.91 ± 2.2 | 1730.2 ± 2.2 | –
285.15 K | 1079.75 ± 2.2 | 1729.4 ± 2.2 | –
285.4 K | 1079.59 ± 2.2 | 1728.5 ± 2.2 | –
285.65 K | 1079.42 ± 2.2 | 1727.8 ± 2.2 | –
285.9 K | 1079.25 ± 2.2 | 1727 ± 2.2 | –
286.15 K | 1079.09 ± 2.2 | 1726.2 ± 2.2 | –
286.4 K | 1078.93 ± 2.2 | 1725.5 ± 2.2 | –
286.65 K | 1078.76 ± 2.2 | 1724.7 ± 2.2 | –
286.9 K | 1078.6 ± 2.2 | 1723.9 ± 2.2 | –
287.15 K | 1078.44 ± 2.2 | 1723.1 ± 2.2 | –
287.4 K | 1078.28 ± 2.2 | 1722.4 ± 2.2 | –
287.65 K | 1078.11 ± 2.2 | 1721.6 ± 2.2 | –
287.9 K | 1077.95 ± 2.2 | 1720.8 ± 2.2 | –
288.15 K | 1077.79 ± 2.2 | 1720 ± 2.2 | 432.13 ± 63
288.4 K | 1077.62 ± 2.2 | 1719.3 ± 2.2 | –
288.65 K | 1077.46 ± 2.2 | 1718.5 ± 2.2 | –
288.9 K | 1077.3 ± 2.2 | 1717.7 ± 2.2 | –
289.15 K | 1077.13 ± 2.2 | 1717 ± 2.2 | –
289.4 K | 1076.97 ± 2.2 | 1716.2 ± 2.2 | –
289.65 K | 1076.81 ± 2.2 | 1715.4 ± 2.2 | –
289.9 K | 1076.64 ± 2.2 | 1714.7 ± 2.2 | –
290.15 K | 1076.48 ± 2.2 | 1713.9 ± 2.2 | –
290.4 K | 1076.31 ± 2.2 | 1713.2 ± 2.2 | –
290.65 K | 1076.15 ± 2.2 | 1712.4 ± 2.2 | 359.06 ± 48
290.9 K | 1075.98 ± 2.2 | 1711.6 ± 2.2 | –
291.15 K | 1075.82 ± 2.2 | 1710.9 ± 2.2 | –
291.4 K | 1075.65 ± 2.2 | 1710.1 ± 2.2 | –
291.65 K | 1075.49 ± 2.2 | 1709.3 ± 2.2 | –
291.9 K | 1075.33 ± 2.2 | 1708.6 ± 2.2 | –
292.15 K | 1075.16 ± 2.2 | 1707.8 ± 2.2 | –
292.4 K | 1075 ± 2.2 | 1707.1 ± 2.2 | –
292.65 K | 1074.83 ± 2.2 | 1706.4 ± 2.2 | –
292.9 K | 1074.67 ± 2.2 | 1705.6 ± 2.2 | –
293.15 K | 1074.5 ± 2.2 | 1704.9 ± 2.2 | 301.63 ± 37
293.4 K | 1074.34 ± 2.2 | 1704.1 ± 2.2 | –
293.65 K | 1074.17 ± 2.2 | 1703.4 ± 2.2 | –
293.9 K | 1074.01 ± 2.2 | 1702.6 ± 2.2 | –
294.15 K | 1073.84 ± 2.2 | 1701.9 ± 2.2 | –
294.4 K | 1073.68 ± 2.2 | 1701.1 ± 2.2 | –
294.65 K | 1073.51 ± 2.2 | 1700.4 ± 2.2 | –
294.9 K | 1073.35 ± 2.2 | 1699.7 ± 2.2 | –
295.15 K | 1073.18 ± 2.2 | 1698.9 ± 2.2 | –
295.4 K | 1073.02 ± 2.2 | 1698.2 ± 2.2 | –
295.65 K | 1072.86 ± 2.2 | 1697.4 ± 2.2 | 256.14 ± 29
295.9 K | 1072.7 ± 2.2 | 1696.7 ± 2.2 | –
296.15 K | 1072.54 ± 2.2 | 1695.9 ± 2.2 | –
296.4 K | 1072.38 ± 2.2 | 1695.2 ± 2.2 | –
296.65 K | 1072.22 ± 2.2 | 1694.5 ± 2.2 | –
296.9 K | 1072.07 ± 2.2 | 1693.7 ± 2.2 | –
297.15 K | 1071.9 ± 2.2 | 1693 ± 2.2 | –
297.4 K | 1071.74 ± 2.2 | 1692.2 ± 2.2 | –
297.65 K | 1071.59 ± 2.2 | 1691.5 ± 2.2 | –
297.9 K | 1071.43 ± 2.2 | 1690.7 ± 2.2 | –
298.15 K | 1071.27 ± 2.2 | 1690 ± 2.2 | 215.06 ± 22
298.4 K | 1071.11 ± 2.2 | 1689.3 ± 2.2 | –
298.65 K | 1070.95 ± 2.2 | 1688.5 ± 2.2 | –
298.9 K | 1070.79 ± 2.2 | 1687.8 ± 2.2 | –
299.15 K | 1070.63 ± 2.2 | 1687 ± 2.2 | –
299.4 K | 1070.47 ± 2.2 | 1686.3 ± 2.2 | –
299.65 K | 1070.31 ± 2.2 | 1685.5 ± 2.2 | –
299.9 K | 1070.15 ± 2.2 | 1684.8 ± 2.2 | –
300.15 K | 1069.99 ± 2.2 | 1684.1 ± 2.2 | –
300.4 K | 1069.83 ± 2.2 | 1683.3 ± 2.2 | –
300.65 K | 1069.67 ± 2.2 | 1682.6 ± 2.2 | 182.88 ± 16
300.9 K | 1069.51 ± 2.2 | 1681.8 ± 2.2 | –
301.15 K | 1069.35 ± 2.2 | 1681.1 ± 2.2 | –
301.4 K | 1069.18 ± 2.2 | 1680.3 ± 2.2 | –
301.65 K | 1069.02 ± 2.2 | 1679.6 ± 2.2 | –
301.9 K | 1068.86 ± 2.2 | 1678.9 ± 2.2 | –
302.15 K | 1068.69 ± 2.2 | 1678.1 ± 2.2 | –
302.4 K | 1068.53 ± 2.2 | 1677.4 ± 2.2 | –
302.65 K | 1068.38 ± 2.2 | 1676.7 ± 2.2 | –
302.9 K | 1068.21 ± 2.2 | 1675.9 ± 2.2 | –
303.15 K | 1068.05 ± 2.2 | 1675.2 ± 2.2 | 158.24 ± 13
303.4 K | 1067.89 ± 2.2 | 1674.5 ± 2.2 | –
303.65 K | 1067.73 ± 2.2 | 1673.7 ± 2.2 | –
303.9 K | 1067.57 ± 2.2 | 1673 ± 2.2 | –
304.15 K | 1067.4 ± 2.2 | 1672.3 ± 2.2 | –
304.4 K | 1067.24 ± 2.2 | 1671.5 ± 2.2 | –
304.65 K | 1067.08 ± 2.2 | 1670.8 ± 2.2 | –
304.91 K | 1066.92 ± 2.2 | 1670.1 ± 2.2 | –
305.15 K | 1066.76 ± 2.2 | 1669.3 ± 2.2 | 140.88 ± 10
305.4 K | 1066.59 ± 2.2 | 1668.6 ± 2.2 | –
305.65 K | 1066.42 ± 2.2 | 1667.9 ± 2.2 | –
305.9 K | 1066.27 ± 2.2 | 1667.1 ± 2.2 | –
306.15 K | 1066.1 ± 2.2 | 1666.4 ± 2.1 | –
306.4 K | 1065.94 ± 2.2 | 1665.7 ± 2.1 | –
306.65 K | 1065.77 ± 2.2 | 1664.9 ± 2.1 | –
306.9 K | 1065.61 ± 2.2 | 1664.2 ± 2.1 | –
307.15 K | 1065.45 ± 2.2 | 1663.5 ± 2.1 | –
307.4 K | 1065.28 ± 2.2 | 1662.7 ± 2.1 | –
307.65 K | 1065.12 ± 2.2 | 1662 ± 2.1 | –
307.9 K | 1064.95 ± 2.2 | 1661.2 ± 2.1 | –
